According to patent publication US20190367558A1, “ANTIBODY/DRUG CONJUGATES AND METHODS OF USE” (ESPERANCE PHARMACEUTICALS, INC., priority 2012, published 2019):
“Also recorded” adds a separate entry of the source. Where two headings read alike, the source gives them in different places.

Assays:
Assay type in all cases: cell-based, human
[1] = tested on: Daudi (CD20 positive Non-Hodgkin's lymphoma cells); experiment: Membrane integrity, Cytotox Glo luminometric assay (Examples 12, 16, 19, 20, 22); conditions: membrane integrity
Procedure: (§1) Naked antibody anti-CD20-IgG1-Phor18 were chemically conjugated (MS4A and AT80), Mw app.158,000 g/mol at a concentrations of 0.34 mg/ml (MS4A-Phor18) and 0.76 mg/ml (AT-80-Phor18). Cell lines were obtained at the American Type Cell Collection (Mannassas, Va.). Human Non-Hodgkin's lymphoma cells Daudi (CD20 positive, passage number p2), Raji (CD20 positive p 2) and human leukemia cell line U937 (CD20 negative, p 10) were seeded at a density of 3,000 cells per well in opaque plates in heat inactivated full medium. After 24 hours cells were replenished with fresh media (75 μl) and incubated with 25 μl of a 4× serial dilution of MS4A1-Phor18 and AT80-Phor18 of 0.001, 0.01, 0.1, 1, 10, 100 and 500 nM (N=6). Cells incubated for 2-5 hours were assayed for membrane integrity using a luminometric assay kit (Promega, Madison, Wis., Cytotox Glo G9292 lot #301329). Cell viability was determined was determined after 24, and 48 hours using a luminescent assay kit (Promega, Madison, Wis., Cell Titer Glo, G 7572, lot 30068102).
(§2) The concentration of each naked antibody fragment and ADC was determined according to Bradford. Naked antibody scFv Mw 27,088 g/mol at a concentration of 0.3 mg/ml, minibody Mw 78,988 g/mol, 0.231 mg/ml; Phor 18 conjugated antibodies were scFv-Phor18 (Mw 29,349 g/mol, 0.9 mg/ml) and minibody-Phor18 (Mw 93,515, 0.48 mg/ml). Cell lines were obtained at the American Type Cell Collection (Mannassas, Va.). Human Non-Hodgkin's lymphoma cells Daudi (CD20 positive, passage number p8) and human leukemia cell line U937 (CD20 negative, p 16) were seeded at a density of 2,000 cells per well in opaque plates in heat inactivated full medium. After 24 hours cells were replenished with fresh media (75 μl) and incubated with 25 μl of a 4× serial dilution of scFv-Phor18 and minibody-Phor18 ADC and naked antibody fragment (scFv and minibody) prepared in cell culture media were added at concentrations of 0.0001, 0.001, 0.01, 0.1, 1, 10, 100, 200, and 500 nM (N=6). Cells incubated for 4 hours were assayed for membrane integrity using a luminometric assay kit (Promega, Madison, Wis., Cytotox Glo G9292 lot #301329). Cell viability was determined was determined after 24, 48 and 72 hours using a luminescent assay kit (Promega, Madison, Wis., Cell Titer Glo, G 7572, lot 30062102).
(§3) Controls for 100% cell viability (culture media) and 100% cell death (0.1% Triton X 100) incubated under the same conditions.
(§4) Data were processed and analyzed to obtain IC50 values using Graph Pad Prizm version 5.00 for Windows, GraphPad Software, San Diego Calif. USA, www-graphpad-com (Graph Pad Prizm, Inc). Statistical analysis for significance was determined by a two-tailed Student's T-test. Each test was conducted using 2 plates with 2-3 wells each to achieve an N of 4-6 data points per time point.
(§5) The concentration of each naked antibody fragment and ADC was determined spectrophotometrically (OD280). Naked antibody scFv-Fc Mw 52,562 g/mol at a concentration of 1.1 mg/ml, Phor 18 conjugated antibodies were Phor18-VL-scFvFc (Mw 54,685 g/mol, 1.0 mg/ml), scFv-Fc-CH3-Phor18 (Mw 54,685 g/mol, 0.8 mg/ml). Human Non-Hodgkin's lymphoma cells Daudi (CD20 positive, passage number p7) and human leukemia cell line U937 (CD20 negative, p 6) were seeded at a density of 2,000 cells per well in opaque plates in heat inactivated full medium using cell dissociation buffer. After 24 hours cells were replenished with fresh media (75 μl) and incubated and incubated with 25 μl of a 4× serial dilution of each ADC and naked antibody prepared in cell culture media were added at concentrations of 0.01, 0.1, 1, 10, 100, 200 and 500 nM for scFvFc, Phor18-VL-scFvFc and scFv-Fc-CH3-Phor18.
(§6) Cells incubated for 4 hours were assayed for membrane integrity using a luminometric assay kit (Promega, Madison, Wis., Cytotox Glo G9292 lot #26229601). Cell viability was determined was determined after 24 hours using a luminescent assay kit (Promega, Madison, Wis., Cell Titer Glo, G 7572, lot 30731602). […]

[2] = tested on: Raji (CD20 positive Non-Hodgkin's lymphoma cells); experiment: Cell viability, Cell Titer Glo luminescent assay (Example 12)
Procedure: as §1

[3] = tested on: U937 (CD20 negative leukemia cell line); experiment: Cell viability, Cell Titer Glo luminescent assay (Examples 12, 16, 19, 20, 22); conditions: for IC50, U937 (CD20 negative) 2-46 h: U937, 2-46 h (membrane integrity and viability time points), Example 12; for IC50, U937 2-48 h: Example 16
Procedure: as §1, §2, §5
Cells incubated for 4 hours were assayed for membrane integrity using a luminometric assay kit (Promega, Madison, Wis., Cytotox Glo G9292 lot #26229601). Cell viability was determined was determined after 24 hours using a luminescent assay kit (Promega, Madison, Wis., Cell Titer Glo, G 7572, lot 30731602). Controls for 100% cell viability (culture media) and 100% cell death (0.1% Triton X 100) incubated under the same conditions.
Human Non-Hodgkin's lymphoma cells Daudi (CD20 positive, passage number p3) and human leukemia cell line U937 (CD20 negative, p 12) were seeded at a density of 2,000 cells per well in opaque plates in heat inactivated full medium using cell dissociation buffer. […]

[4] = tested on: Daudi (CD20 positive Non-Hodgkin's lymphoma cells); experiment: as above
Procedure: as §1, §2, §3, §4, §5, §6

[5] = tested on: Raji (CD20 positive Non-Hodgkin's lymphoma cells); experiment: Membrane integrity, Cytotox Glo luminometric assay (Example 12)
Procedure: as §1

[6] = tested on: caspase 3/7 in Daudi cells (CD20 positive); experiment: Caspase 3/7 activation, Caspase Glo 3/7 luminometric assay (Examples 13, 17); conditions: 5 hours; scFv-Phor18 or scFv at 5 and 15 μg/ml; Staurosporine 10 μM = 100%; Daudi (Raji also seeded)
Procedure: Human Non-Hodgkin's lymphoma cells Daudi (CD20 positive, passage number p2), were seeded at a density of 3,000 cells per well in opaque plates in heat inactivated full medium. After 24 hours cells were fed with fresh media (75 μl) and incubated with AT80-Phor18 (0.76 mg/ml) or naked antibody AT-80 of 15 and 75 μg/ml (100 and 500 nM) (N=6). Staurosporine at 10 μM served as positive control for caspase 3/7 activation. After 5 hours of incubatin cultures were assayed for caspase 3/7 levels using a luminometric assay kit (Promega, Madison, Wis., Caspase Glo 3/7 G811C lot #28731802).
Caspase 3/7 activation was calculated from relative light units from luminometric signals. Staurosporine was set at 100% caspase 3/7 activation, cell suspension alone without additions of reagents served as 0% caspase levels.
In in vitro studies, caspase activation of recombinantly expressed CD20 targeting scFv-Phor18 conjugate with “naked” antibody (scFv) in CD20 positive cells (Daudi Burkitt's lymphoma) was compared. Human Non-Hodgkin's lymphoma cells Daudi (CD20 positive, p 5) and Raji (CD20 positive, passage number p 3), were seeded at a density of 3,000 cells per well in opaque plates in heat inactivated full medium. […]
Relative caspase 3/7 activation was calculated from relative light units from luminometric signals. […]

[7] = Example 12, listed as MS4A1-Phor18
[8] = 46 h (text: 48 h / 46 hours), Example 16

Anti-CD20 MS4A1: naked anti-CD20 antibody MS4A1 (Rituximab Like, R&D) [reference compound]
IC50, Daudi 2 h ([1]; Example 12): Not toxic | IC50, Daudi 5 h ([1]; Example 12): Not toxic | IC50, Raji 24 h ([2]; 24 h): Not toxic | IC50, Raji 46 h ([2]; 46 h (text: 48 h)): Not toxic | IC50, U937 (CD20 negative) 2-46 h [3]: Not toxic | IC50, Daudi 24 h ([4]; 24 h, Example 12): Not toxic | IC50, Daudi 46 h ([4]; 46 h (text: 48 h), Example 12): Not toxic

Anti-CD20-Phor18 (MS4A1)
IC50, Raji 2 h ([5]; 2 h): not active | IC50, Raji 5 h ([5]; 5 h): not active | IC50, Daudi 2 h ([1]; Example 12): Not toxic | IC50, Daudi 2 h [1, 7]: not active | IC50, Daudi 5 h ([1]; Example 12): Not toxic | IC50, Daudi 5 h [1, 7]: not active | IC50 ([2]; 24 h, listed as MS4A1-Phor18, read-out: IC50, Raji 24 h): 267 ± 13 nM | IC50 ([2]; 24 h, read-out: IC50, Raji 24 h): 267 ± 13 nM | IC50 ([2]; 46 h (text: 48 h), read-out: IC50, Raji 46 h): 227 ± 11 nM | IC50, U937 (CD20 negative) 2-46 h [3]: Not toxic | IC50 ([4]; 24 h, Example 12, read-out: IC50, Daudi 24 h): 10.6 ± 2.1 nM | IC50 ([4]; 46 h (text: 48 h), Example 12, read-out: IC50, Daudi 46 h): 3 ± 1.2 nM

B1: scFv: naked single chain Fv anti-CD20 fragment with Rituxan CDRs, E. coli, SEQ ID NO.:92 (protein)
scFv: HHHHHHDIQLTQSPAILSASPGEKVTMTCRASSSVSYIHWFQQKPGSSPKPWIYATSNLASGVPVRFSGSGSGTSYSLTISRVEAEDAATYYCQQWTSNPPTFGGGTKLEIGSTSGGGSGGGSGGGGSSVQLQQPGAELVKPGASVKMSCKASGYTFTSYNMHWVKQTPGRGLEWIGAIYPGNGDTSYNQKFKGKATLTADKSSSTAYMQLSSLTSEDSAVYYCARSTYYGGDWYFDVWGQGTTVTVSS
IC50, Daudi 2 h ([1]; E. coli expressed, Example 16): Not toxic | IC50, Daudi 5 h ([1]; E. coli expressed, Example 16): Not toxic | Caspase 3/7 levels compared to Staurosporine [6]: did not detectably activate caspases | IC50, U937 2-48 h [3]: not killed; also recorded: Not toxic | IC50, Daudi 24 h ([4]; 24 h, Example 16): Not toxic | IC50, Daudi 46 h [4, 8]: Not toxic

B2: Fv-CH3-CH3-Fv: naked bivalent anti-CD20 minibody, E. coli, SEQ ID NO.:94 (protein)
chain: DIQLTQSPAILSASPGEKVTMTCRASSSVSYIHWFQQKPGSSPKPWIYATSNLASGVPVRFSGSGSGTSYSLTISRVEAEDAATYYCQQWTSNPPTFGGGTKLEIGSTSGGGSGGGSGGGGSSVQLQQPGAELVKPGASVKMSCKASGYTFTSYNMHWVKQTPGRGLEWIGAIYPGNGDTSYNQKFKGKATLTADKSSSTAYMQLSSLTSEDSAVYYCARSTYYGGDWYFDVWGQGTTVTVSSGQPREPQVYTLPPSRDELTKNQVSLTCLVKGFYPSDIAVEWESNGQPENNYKTTPPVLDSDGSFFLYSKLTVDKSRWQQGNVFSCSVMHEALHNHYTQKSLSLSPGKGSTSGGGSGGGSGGGGSSGQPREPQVYTLPPSRDELTKNQVSLTCLVKGFYPSDIAVEWESNGQPENNYKTTPPVLDSDGSFFLYSKLTVDKSRWQQGNVFSCSVMHEALHNHYTQKSLSLSPGKVQLQQPGAELVKPGASVKMSCKASGYTFTSYNMHWVKQTPGRGLEWIGAIYPGNGDTSYNQKFKGKATLTADKSSSTAYMQLSSLTSEDSAVYYCARSTYYGGDWYFDVWGQGTTVTVSSGSTSGGGSGGGSGGGGSSDIQLTQSPAILSASPGEKVTMTCRASSSVSYIHWFQQKPGSSPKPWIYATSNLASGVPVFSGSGSGTSYSLTISRVEAEDAATYYCQQWTSNPPTFGGGTKLEI
IC50, U937 2-48 h [3]: Not toxic | IC50, Daudi 24 h ([4]; 24 h, Example 16): Not toxic | IC50, Daudi 46 h [4, 8]: Not toxic
